Laboratory results reported in ChEMBL document CHEMBL3045137, “Synthesis and evaluation of the hypoglycemic and hypolipidemic activity of novel 5-benzylidene-2,4-thiazolidinedione analogs in a type-2 diabetes model” (2011).

Columns and labels:
Format in all cases: functional
Design in all cases: scale not given: the % may be the effect or the level left
Rattus norvegicus [1] = experiment: Hypolipidemic activity in high fat diet fed Rattus norvegicus Sprague-Dawley (rat) type-2 diabetes model assessed as reduction in streptozotocin-induced cholesterol level at 10 mg/kg/day, po for 14 days measured after treatment
Rattus norvegicus [2] = experiment: Hypolipidemic activity in high fat diet fed Rattus norvegicus Sprague-Dawley (rat) type-2 diabetes model assessed as reduction in streptozotocin-induced triglyceride level at 10 mg/kg/day, po for 14 days measured after treatment
Rattus norvegicus [3] = experiment: Hypoglycemic activity in high fat diet fed Rattus norvegicus Sprague-Dawley (rat) type-2 diabetes model assessed as reduction in streptozotocin-induced blood glucose level at 10 mg/kg/day, po for 14 days measured after treatment
Rattus norvegicus [4] = experiment: Hypolipidemic activity in high fat diet fed Rattus norvegicus Sprague-Dawley (rat) type-2 diabetes model assessed as reduction in streptozotocin-induced cholesterol level at 20 mg/kg/day, po for 14 days measured after treatment
Rattus norvegicus [5] = experiment: Hypolipidemic activity in high fat diet fed Rattus norvegicus Sprague-Dawley (rat) type-2 diabetes model assessed as reduction in streptozotocin-induced triglyceride level at 20 mg/kg/day, po for 14 days measured after treatment
Rattus norvegicus [6] = experiment: Hypoglycemic activity in high fat diet fed Rattus norvegicus Sprague-Dawley (rat) type-2 diabetes model assessed as reduction in streptozotocin-induced blood glucose level at 20 mg/kg/day, po for 14 days measured after treatment

CCc1ccc(CCOc2ccc(CC3SC(=O)NC3=O)cc2)nc1.Cl (centres undefined) [PIOGLITAZONE HYDROCHLORIDE]
Activity (Rattus norvegicus [1]): 86.83% | Activity (Rattus norvegicus [2]): 78.38% | Activity (Rattus norvegicus [3]): 51.57%

NC(=O)c1cc(C(=O)COc2ccc(/C=C3\SC(=O)NC3=O)cc2)ccc1O
Activity (Rattus norvegicus [4]): 89.7% | Activity (Rattus norvegicus [5]): 74.18% | Activity (Rattus norvegicus [6]): 64.43%

O=C(COc1ccc(/C=C2\SC(=O)NC2=O)cc1)Nc1ncc([N+](=O)[O-])s1
Activity (Rattus norvegicus [4]): 92.46% | Activity (Rattus norvegicus [5]): 78.11% | Activity (Rattus norvegicus [6]): 56.08%
